{
  "source": "PubChem BioAssay (NCI)",
  "assay_in_all_cases": "NCI anticancer screen, dose series, 48 h",
  "key": {"U251 CNS": {"test_system": "U251 CNS"}, "OVCAR-5 ovarian": {"test_system": "OVCAR-5 ovarian"}, "UACC-62 melanoma": {"test_system": "UACC-62 melanoma"}, "SF-539 CNS": {"test_system": "SF-539 CNS"}, "DU-145 prostate": {"test_system": "DU-145 prostate"}, "SK-MEL-5 melanoma": {"test_system": "SK-MEL-5 melanoma"}, "SW-620 colon": {"test_system": "SW-620 colon"}, "MALME-3M melanoma": {"test_system": "MALME-3M melanoma"}, "HCT-116 colon": {"test_system": "HCT-116 colon"}, "MDA-MB-231 breast": {"test_system": "MDA-MB-231 breast"}, "NCI-H226 lung": {"test_system": "NCI-H226 lung"}, "TK-10 renal": {"test_system": "TK-10 renal"}, "COLO 205 colon": {"test_system": "COLO 205 colon"}, "EKVX NSCLC": {"test_system": "EKVX NSCLC"}, "M14 melanoma": {"test_system": "M14 melanoma"}, "A549 NSCLC": {"test_system": "A549 NSCLC"}, "HCT-15 colon": {"test_system": "HCT-15 colon"}, "MDA-N": {"test_system": "MDA-N"}, "NCI-H460 lung": {"test_system": "NCI-H460 lung"}, "HCC-2998 colon": {"test_system": "HCC-2998 colon"}, "SK-MEL-28 melanoma": {"test_system": "SK-MEL-28 melanoma"}, "UACC-257 melanoma": {"test_system": "UACC-257 melanoma"}, "786-0 renal": {"test_system": "786-0 renal"}, "UO-31 renal": {"test_system": "UO-31 renal"}, "SN12C renal": {"test_system": "SN12C renal"}, "NCI/ADR-RES ovarian": {"test_system": "NCI/ADR-RES ovarian"}, "RXF 393 renal": {"test_system": "RXF 393 renal"}, "SK-OV-3 ovarian": {"test_system": "SK-OV-3 ovarian"}, "IGROV1 ovarian": {"test_system": "IGROV1 ovarian"}, "ACHN renal": {"test_system": "ACHN renal"}, "SR leukemia": {"test_system": "SR leukemia"}, "K-562 leukemia": {"test_system": "K-562 leukemia"}, "NCI-H23 lung": {"test_system": "NCI-H23 lung"}, "RPMI-8226 leukemia": {"test_system": "RPMI-8226 leukemia"}, "CCRF-CEM leukemia": {"test_system": "CCRF-CEM leukemia"}, "CAKI-1 renal": {"test_system": "CAKI-1 renal"}, "SF-268 CNS": {"test_system": "SF-268 CNS"}, "HL-60(TB) leukemia": {"test_system": "HL-60(TB) leukemia"}, "SNB-75 CNS": {"test_system": "SNB-75 CNS"}, "OVCAR-8 ovarian": {"test_system": "OVCAR-8 ovarian"}, "NCI-H522 lung": {"test_system": "NCI-H522 lung"}, "OVCAR-3 ovarian": {"test_system": "OVCAR-3 ovarian"}, "SNB-19 CNS": {"test_system": "SNB-19 CNS"}, "MOLT-4 leukemia": {"test_system": "MOLT-4 leukemia"}, "SK-MEL-2 melanoma": {"test_system": "SK-MEL-2 melanoma"}, "HOP-62 NSCLC": {"test_system": "HOP-62 NSCLC"}, "OVCAR-4 ovarian": {"test_system": "OVCAR-4 ovarian"}, "MCF7 breast": {"test_system": "MCF7 breast"}, "BT-549 breast": {"test_system": "BT-549 breast"}, "PC-3 prostate": {"test_system": "PC-3 prostate"}, "HT29 colon": {"test_system": "HT29 colon"}, "HOP-92 NSCLC": {"test_system": "HOP-92 NSCLC"}, "SF-295 CNS": {"test_system": "SF-295 CNS"}},
  "note": "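Grown in 96-well plates, cells were treated for 48 hours with each compound at five concentrations. Insufficient inhibition: endpoint recorded as highest concentration tested. TGI is the concentration that stops growth completely.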",
  "data": [
    {"smiles": "CN(C)CCOc1ccc2[nH]c(C(=O)N3CC(CCl)c4c3cc(NC(=O)OCc3ccc([N+](=O)[O-])cc3)c3ccccc43)cc2c1", "note": "(configuration not stated)", "values": [
      {"measurement": "TGI", "setting": "U251 CNS", "value": "> 100", "unit": "µM"},
      {"measurement": "TGI", "setting": "OVCAR-5 ovarian", "value": 2.95, "unit": "µM"},
      {"measurement": "TGI", "setting": "UACC-62 melanoma", "value": 5.36, "unit": "µM"},
      {"measurement": "TGI", "setting": "SF-539 CNS", "value": 2.99, "unit": "µM"},
      {"measurement": "TGI", "setting": "DU-145 prostate", "value": 1.9, "unit": "µM"},
      {"measurement": "TGI", "setting": "SK-MEL-5 melanoma", "value": 2.76, "unit": "µM"},
      {"measurement": "TGI", "setting": "SW-620 colon", "value": 2.61, "unit": "µM"},
      {"measurement": "TGI", "setting": "MALME-3M melanoma", "value": 2.86, "unit": "µM"},
      {"measurement": "TGI", "setting": "HCT-116 colon", "value": 2.17, "unit": "µM"},
      {"measurement": "TGI", "setting": "MDA-MB-231 breast", "value": 3.23, "unit": "µM"},
      {"measurement": "TGI", "setting": "NCI-H226 lung", "value": 3.72, "unit": "µM"},
      {"measurement": "TGI", "setting": "TK-10 renal", "value": "> 100", "unit": "µM"},
      {"measurement": "TGI", "setting": "COLO 205 colon", "value": 3.29, "unit": "µM"},
      {"measurement": "TGI", "setting": "EKVX NSCLC", "value": 3.14, "unit": "µM"},
      {"measurement": "TGI", "setting": "M14 melanoma", "value": 2.88, "unit": "µM"},
      {"measurement": "TGI", "setting": "A549 NSCLC", "value": 2.52, "unit": "µM"},
      {"measurement": "TGI", "setting": "HCT-15 colon", "value": 3.58, "unit": "µM"},
      {"measurement": "TGI", "setting": "MDA-N", "value": 2.86, "unit": "µM"},
      {"measurement": "TGI", "setting": "NCI-H460 lung", "value": "> 100", "unit": "µM"},
      {"measurement": "TGI", "setting": "HCC-2998 colon", "value": "> 100", "unit": "µM"},
      {"measurement": "TGI", "setting": "SK-MEL-28 melanoma", "value": 3.06, "unit": "µM"},
      {"measurement": "TGI", "setting": "UACC-257 melanoma", "value": "> 100", "unit": "µM"},
      {"measurement": "TGI", "setting": "786-0 renal", "value": 2.09, "unit": "µM"},
      {"measurement": "TGI", "setting": "UO-31 renal", "value": 2.56, "unit": "µM"},
      {"measurement": "TGI", "setting": "SN12C renal", "value": 2.95, "unit": "µM"}
    ]},
    {"smiles": "CN(C)CCCNC(=O)c1c(-c2cccnc2)cnc2ccccc12", "values": [
      {"measurement": "TGI", "setting": "NCI/ADR-RES ovarian", "value": "> 100", "unit": "µM"},
      {"measurement": "TGI", "setting": "U251 CNS", "value": "> 100", "unit": "µM"},
      {"measurement": "TGI", "setting": "RXF 393 renal", "value": "> 100", "unit": "µM"},
      {"measurement": "TGI", "setting": "SK-OV-3 ovarian", "value": "> 100", "unit": "µM"},
      {"measurement": "TGI", "setting": "OVCAR-5 ovarian", "value": "> 100", "unit": "µM"},
      {"measurement": "TGI", "setting": "UACC-62 melanoma", "value": "> 100", "unit": "µM"},
      {"measurement": "TGI", "setting": "IGROV1 ovarian", "value": "> 100", "unit": "µM"},
      {"measurement": "TGI", "setting": "ACHN renal", "value": "> 100", "unit": "µM"},
      {"measurement": "TGI", "setting": "SR leukemia", "value": "> 100", "unit": "µM"},
      {"measurement": "TGI", "setting": "K-562 leukemia", "value": "> 100", "unit": "µM"},
      {"measurement": "TGI", "setting": "NCI-H23 lung", "value": "> 100", "unit": "µM"},
      {"measurement": "TGI", "setting": "SF-539 CNS", "value": "> 100", "unit": "µM"},
      {"measurement": "TGI", "setting": "RPMI-8226 leukemia", "value": "> 100", "unit": "µM"},
      {"measurement": "TGI", "setting": "DU-145 prostate", "value": "> 100", "unit": "µM"},
      {"measurement": "TGI", "setting": "SK-MEL-5 melanoma", "value": "> 100", "unit": "µM"},
      {"measurement": "TGI", "setting": "SW-620 colon", "value": "> 100", "unit": "µM"},
      {"measurement": "TGI", "setting": "MALME-3M melanoma", "value": "> 100", "unit": "µM"},
      {"measurement": "TGI", "setting": "CCRF-CEM leukemia", "value": "> 100", "unit": "µM"},
      {"measurement": "TGI", "setting": "CAKI-1 renal", "value": "> 100", "unit": "µM"},
      {"measurement": "TGI", "setting": "HCT-116 colon", "value": "> 100", "unit": "µM"},
      {"measurement": "TGI", "setting": "SF-268 CNS", "value": "> 100", "unit": "µM"},
      {"measurement": "TGI", "setting": "HL-60(TB) leukemia", "value": "> 100", "unit": "µM"},
      {"measurement": "TGI", "setting": "SNB-75 CNS", "value": "> 100", "unit": "µM"},
      {"measurement": "TGI", "setting": "OVCAR-8 ovarian", "value": "> 100", "unit": "µM"},
      {"measurement": "TGI", "setting": "NCI-H522 lung", "value": "> 100", "unit": "µM"},
      {"measurement": "TGI", "setting": "NCI-H226 lung", "value": "> 100", "unit": "µM"},
      {"measurement": "TGI", "setting": "OVCAR-3 ovarian", "value": "> 100", "unit": "µM"},
      {"measurement": "TGI", "setting": "TK-10 renal", "value": "> 100", "unit": "µM"},
      {"measurement": "TGI", "setting": "SNB-19 CNS", "value": "> 100", "unit": "µM"},
      {"measurement": "TGI", "setting": "MOLT-4 leukemia", "value": "> 100", "unit": "µM"},
      {"measurement": "TGI", "setting": "SK-MEL-2 melanoma", "value": "> 100", "unit": "µM"},
      {"measurement": "TGI", "setting": "COLO 205 colon", "value": "> 100", "unit": "µM"},
      {"measurement": "TGI", "setting": "HOP-62 NSCLC", "value": "> 100", "unit": "µM"},
      {"measurement": "TGI", "setting": "EKVX NSCLC", "value": "> 100", "unit": "µM"},
      {"measurement": "TGI", "setting": "M14 melanoma", "value": "> 100", "unit": "µM"},
      {"measurement": "TGI", "setting": "A549 NSCLC", "value": "> 100", "unit": "µM"},
      {"measurement": "TGI", "setting": "OVCAR-4 ovarian", "value": "> 100", "unit": "µM"},
      {"measurement": "TGI", "setting": "HCT-15 colon", "value": "> 100", "unit": "µM"},
      {"measurement": "TGI", "setting": "MCF7 breast", "value": "> 100", "unit": "µM"},
      {"measurement": "TGI", "setting": "BT-549 breast", "value": "> 100", "unit": "µM"},
      {"measurement": "TGI", "setting": "MDA-N", "value": "> 100", "unit": "µM"},
      {"measurement": "TGI", "setting": "NCI-H460 lung", "value": "> 100", "unit": "µM"},
      {"measurement": "TGI", "setting": "HCC-2998 colon", "value": "> 100", "unit": "µM"},
      {"measurement": "TGI", "setting": "PC-3 prostate", "value": "> 100", "unit": "µM"},
      {"measurement": "TGI", "setting": "SK-MEL-28 melanoma", "value": "> 100", "unit": "µM"},
      {"measurement": "TGI", "setting": "UACC-257 melanoma", "value": "> 100", "unit": "µM"},
      {"measurement": "TGI", "setting": "786-0 renal", "value": "> 100", "unit": "µM"},
      {"measurement": "TGI", "setting": "HT29 colon", "value": "> 100", "unit": "µM"},
      {"measurement": "TGI", "setting": "HOP-92 NSCLC", "value": "> 100", "unit": "µM"},
      {"measurement": "TGI", "setting": "UO-31 renal", "value": "> 100", "unit": "µM"},
      {"measurement": "TGI", "setting": "SN12C renal", "value": "> 100", "unit": "µM"},
      {"measurement": "TGI", "setting": "SF-295 CNS", "value": "> 100", "unit": "µM"}
    ]}
  ]
}
